Reference: PMC9541495, “Understanding the interaction of 14‐3‐3 proteins with hDMX and hDM2: a structural and biophysical study” (The Febs Journal, 2022)
Where a SMILES comes first, the peptide text is derived from it. [ ]: non-standard residue; d: D form. The star is where a group is joined. 5FAM = O=C1OC2(c3ccc(O)cc3Oc3cc(O)ccc32)c2ccc(C(=O)*)cc21; pS = N[C@@H](COP(=O)(O)O)C(=O)O; Ahx = NCCCCCC(=O)O

Experiments:
Assay type in all cases: binding
14‐3‐3 τ = target: T1, 14‐3‐3 τ (Homo sapiens, UniProt P27348); test: Fluorescence anisotropy direct titration, 14‐3‐3τ; settings: FA direct titration; FAM‐Ahx tracer peptide 50 nM; HEPES/NaCl/Tween 20/BSA pH 7.4; 1:1 fit; n = 3; read-out: K d, 14‐3‐3 τ
T1 construct: full‐length proteins were concentrated by centrifugation, rebuffered in HEPES buffer; made in house; host or cells: E. coli BL21(DE3)
T1 sequence (P27348 1-245): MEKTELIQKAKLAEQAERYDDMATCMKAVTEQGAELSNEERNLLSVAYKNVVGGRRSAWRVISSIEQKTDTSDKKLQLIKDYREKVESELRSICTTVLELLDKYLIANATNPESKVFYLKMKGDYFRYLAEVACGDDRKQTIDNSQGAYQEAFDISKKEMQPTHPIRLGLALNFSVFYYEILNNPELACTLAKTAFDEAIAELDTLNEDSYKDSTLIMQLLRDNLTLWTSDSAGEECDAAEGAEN
Excerpt: (§1) 14‐3‐3 proteins were titrated against a constant concentration of the tracer resulting in an increase of anisotropy upon engaging 14‐3‐3 proteins (Fig. 2A–C for 14‐3‐3 binding hDMX sequences and Figs S4–S6, for 14‐3‐3 binding hDM2 sequences, non‐binding sequence, and unphosphorylated controls). A noteworthy feature of the data is that different maximum anisotropy levels were observed between hDMX or hDM2 peptides and 14‐3‐3 isoforms, indicating different diffusion properties of the fluorophore when bound to the different 14‐3‐3 isoforms. […]
(§2) […]
(§3) All assays were performed in 384 well plates (each experiment was run in triplicates) and data were collected by Perkin Elmer EnVision […] plate reader with excitation at 480 nm (30 nm bandwidth), polarised dichroic mirror at 505 nm and emission at 535 nm (40 nm bandwidth, S and P polarised). […] A ½ fold dilution series was performed in the titration, with plates read after 30 min, 4 h and 20–24 h. […] Total intensity I and anisotropy r were calculated using Equations 1 and 2 for each well. […]

14‐3‐3 ε = target: T2, 14‐3‐3 ε (Homo sapiens, UniProt P62258); test: Fluorescence anisotropy direct titration, 14‐3‐3ε; settings: FA direct titration; FAM‐Ahx tracer peptide 50 nM; HEPES/NaCl/Tween 20/BSA pH 7.4; 1:1 fit; n = 3; read-out: K d, 14‐3‐3 ε
T2 construct: full‐length proteins were concentrated by centrifugation, rebuffered in HEPES buffer; made in house; host or cells: E. coli BL21(DE3)
T2 sequence (P62258 1-255): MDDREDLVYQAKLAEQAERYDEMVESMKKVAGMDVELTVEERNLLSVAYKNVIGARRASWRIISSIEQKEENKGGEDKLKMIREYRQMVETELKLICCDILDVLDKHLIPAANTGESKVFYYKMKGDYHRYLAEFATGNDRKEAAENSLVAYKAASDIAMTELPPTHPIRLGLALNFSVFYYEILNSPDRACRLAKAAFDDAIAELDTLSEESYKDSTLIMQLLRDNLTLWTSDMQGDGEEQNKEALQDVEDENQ
Excerpt: as §1, §2, §3

14‐3‐3 σ = target: T3, 14‐3‐3 σ (Homo sapiens, UniProt P31947); test: Fluorescence anisotropy direct titration, 14‐3‐3σ; settings: FA direct titration; FAM‐Ahx tracer peptide 50 nM; HEPES/NaCl/Tween 20/BSA pH 7.4; 1:1 fit; n = 3; read-out: K d, 14‐3‐3 σ
T3 construct: full‐length proteins were concentrated by centrifugation, rebuffered in HEPES buffer; made in house; host or cells: E. coli BL21(DE3)
T3 sequence (P31947 1-248): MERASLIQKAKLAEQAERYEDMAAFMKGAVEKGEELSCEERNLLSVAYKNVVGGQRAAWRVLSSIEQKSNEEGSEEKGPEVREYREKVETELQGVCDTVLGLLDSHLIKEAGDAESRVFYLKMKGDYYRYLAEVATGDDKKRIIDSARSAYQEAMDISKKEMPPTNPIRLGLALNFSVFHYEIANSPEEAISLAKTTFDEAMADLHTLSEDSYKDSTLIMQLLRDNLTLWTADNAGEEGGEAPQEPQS
Excerpt: as §1, §2, §3

CC[C@H](C)[C@H](NC(=O)[C@H](CO)NC(=O)[C@H](CC(=O)O)NC(=O)[C@H](COP(=O)(O)O)NC(=O)[C@H](CCCCN)NC(=O)[C@H](Cc1c[nH]cn1)NC(=O)[C@H](CCCNC(=N)N)NC(=O)[C@H](CCCCN)NC(=O)[C@H](CCCNC(=N)N)NC(=O)[C@H](CCC(N)=O)NC(=O)CCCCCNC(=O)c1ccc2c(c1)C(=O)OC21c2ccc(O)cc2Oc2cc(O)ccc21)C(=O)N[C@@H](CO)C(=O)N[C@@H](CC(C)C)C(=O)N[C@@H](CO)C(N)=O [hDM2_180‐192 ^pSer186] ({5FAM-Ahx}-QRKRHK[pS]DSISLS-NH2)
Kd (14‐3‐3 τ): > 250 µM
Kd (14‐3‐3 ε): > 260 µM
Kd (14‐3‐3 σ): > 170 µM
